# Laboratory results: patent US5780474A, “3-(piperid-4-yl)-1,2-benzisoxazole and 3-(piperazin-4-yl)-1,2-benzisoxazole compounds” (Adir et Compagnie, priority 1996, dated 1998)
# Assays:
# [1] = test system: verticalisation induced by apomorphine; test: Verticalisation induced by apomorphine in the mouse; assay type: in vivo; settings: sc, product s.c. 30 min before apomorphine 0.75 mg/kg s.c., read-out: ID50 verticalisation
# Method: 1. Verticalisation induced by apomorphine (0.75 mg/kg, s.c.) in the mouse
# This test, described by Protais et al., Psychopharmacology, 50, 1-6 (1976), allows the evaluation of the dopaminergic antagonist activity of possible anti-psychotic products. A mouse to which apomorphine has been administered and which has been placed in a cage with vertical bars will, most of the time, remain immobile at the top of the cage, clinging by its four paws to the bars. This verticalisation behaviour is blocked if a dopaminergic antagonist product has been administered before the apomorphine.
# Test immediately after subcutaneous (s.c.) administration of the product or solvent (control group), the mouse is placed in a cylindrical cage (14 cm diam.×14 cm height) with vertical bars. Thirty minutes later, the animal receives the dose of apomorphine (0.75 mg/kg, s.c.). […]
# Statistical analysis: The effect of the product on verticalisation is evaluated by comparing the scores obtained for each group that has received a dose of product with those obtained for the control group (solvent) using a Mann and Whitney U test with a probability of p<0.05. […]
# [2] = test system: conditioned avoidance response; test: Active avoidance conditioning in the rat; assay type: in vivo; settings: sc, administered subcutaneously 30 minutes before the session, read-out: ID50 conditioned avoidance responses
# Method: 2. Active avoidance conditioning in the rat
# This test is conventionally used to characterise anti-psychotic products, cf. P. A. Janssen, C. J. E. Niemegeers, Arzneim-Forsch., 1037-1043 (1961).
# It is carried out in a cage having two compartments with an electrified floor, on rats that have been conditioned in the following manner: on presentation of a light signal, the animal must move from the compartment in which it is situated to the other compartment in order not to receive an electric shock. The response of the animal to the light signal is a conditioned Avoidance response. […] The response to the electric shock is an unconditioned Escape response.
# Conventionally, anti-psychotic products inhibit the conditioned Avoidance response at doses lower than those which inhibit the non-conditioned Escape response. That differentiates them from other classes of products (in particular, barbiturates and benzodiazepines), which inhibit both responses alike. […]
# Test: the animals are their own controls. […] The effects of a product on the avoidance responses are evaluated during a Test Session which takes places the day after a Control Session during the course of which the animals will have received the solvent. […]
# [3] = test system: aggressiveness in isolated mice; test: Test of aggressiveness in isolated mice; assay type: in vivo; settings: Mus musculus, sc, administered subcutaneously 30 minutes before test, read-out: ID50 number or duration of the attacks
# Excerpt: 3. Test of aggressiveness in isolated mice
# This test allows the evaluation of the intraspecies anti-aggressive activity of a product in mice that have been kept in isolation for several months.
# Animals: The test uses male CD mice (Charles River) weighing from 22 to 25 g on arrival at the animal house. Immediately on arrival the animals are isolated in individual cages made of opaque black polycarbonate (23×14×13 cm) having a grill lid, and are housed for a prolonged period (approximately 6 months) in the experimentation room.
# Selection of pairs of mice: The selection of pairs of aggressive mice that will be used on a long-term basis in the study starts after the animals have been isolated for one month. Once or twice per week a mouse from another cage (intruder) is placed in the cage of a (resident) mouse and the two animals are observed to see if they attack one another (sniffing, pursuing, nipping, biting) during that trial. At the end of the trial (maximum duration of 10 minutes), each mouse is isolated again in its own cage. If attacks have occurred, the same pair will be tested again in the next trial; if there have been no attacks, each mouse of that pair will be placed in the presence of a different mouse in the following trial. […]
# in vivo = settings: rat
# Excerpt: Induction of catalepsy in the rat
# Test: the animals are placed in individual cages and food is withdrawn the day before the test, but drink is taken as desired. The catalepsy test comprises placing each rear paw of the animal on the front paw of the same side and measuring the time (seconds) during which the animal remains in that "crossed paws" position (maximum 30 seconds). Each animal is subjected to three successive tests (one every two minutes), the animal being removed from its cage and placed on the work surface. The tests are carried out one hour after the subcutaneous injection or oral administration of the product or its solvent. The average value of the three tests represents the duration of the catalepsy (in seconds) for each animal. There are five or six rats per experimental group.
# Statistical analysis: The effect of the product on the duration of catalepsy is evaluated by an ANOVA, followed by a Dunnett's test, with a probability of p<0.05.
Structure (SMILES),ED50 [1] [mg/kg],ED50 [2] [mg/kg],ED50 [3] [mg/kg],ED50 at 1 h (in vivo) [mg/kg],ED50 at 1 h (in vivo; sc) [mg/kg]
"O=C1N(CCN2CCC(c3noc4cc(F)ccc34)CC2)CCN1c1ccccc1 [Example 5, 1-{2-[4-(6-Fluoro-1,2-benzisoxazol-3-yl)piperid-1-yl]ethyl}-3-phenylimidazolidin-2-one]",0.22,0.88,0.18,34,
"O=C(CCCN1CCC(O)(c2ccc(Cl)cc2)CC1)c1ccc(F)cc1 [haloperidol, reference compound]",,,,,0.15
